According to patent US5451582A, “Benzodiazepine derivatives, compositions containing them and their use in therapy” (Merck Sharp & Dohme Ltd., priority 1992, dated 1995):

Assays:
CCK receptor (pancreas) = target: T1, CCK receptor (pancreas) (Rattus norvegicus, UniProt P30551); experiment: CCK Receptor Binding (Pancreas), inhibition of 125I-CCK-8 binding; design: species or system rat (male Sprague-Dawley); conditions: rat pancreas membranes; 50 pM 125I-CCK-8; pH 6.5; 25° C., 2 hours
T1 construct: The whole pancreas was dissected free of fat tissue and was homogenized; from tissue; host or cells: rat pancreas membranes (male Sprague-Dawley)
T1 sequence (P30551 1-444): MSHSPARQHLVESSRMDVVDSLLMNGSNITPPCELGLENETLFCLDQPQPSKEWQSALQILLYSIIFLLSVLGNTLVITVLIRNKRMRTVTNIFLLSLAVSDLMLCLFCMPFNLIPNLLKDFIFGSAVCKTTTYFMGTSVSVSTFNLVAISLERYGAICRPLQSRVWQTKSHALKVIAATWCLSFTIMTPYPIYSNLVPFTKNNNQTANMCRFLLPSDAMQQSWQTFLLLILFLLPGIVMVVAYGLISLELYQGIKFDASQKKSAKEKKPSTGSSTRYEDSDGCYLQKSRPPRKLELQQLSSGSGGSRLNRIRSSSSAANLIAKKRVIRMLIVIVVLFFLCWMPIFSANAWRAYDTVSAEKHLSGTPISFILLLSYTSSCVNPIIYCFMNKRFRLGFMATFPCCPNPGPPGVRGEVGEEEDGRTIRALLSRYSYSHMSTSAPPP
Procedure: 1. CCK Receptor Binding (Pancreas)
CCK-8 sulphated was radiolabelled with ^125 I-Bolton Hunter reagent (2000 Ci/mmole). Receptor binding was performed according to Chang and Lotti (Proc. Natl. Acad. Sci. 83, 4923-4926, 1986) with minor modifications.
Male Sprague-Dawley rats (150-200 g) were sacrificed by decapitation. The whole pancreas was dissected free of fat tissue and was homogenized in 25 volumes of ice-cold 10 mM N-2-hydroxyethyl-piperazine-N'-2-ethane sulphonic acid (HEPES) buffer with 0.1% soya bean trypsin inhibitor (pH 7.4 at 25° C.) with a Kinematica Polytron. The homogenates were centrifuged at 47,800 g for 10 min. Pellets were resuspended in 10 volumes of binding assay buffer (20 mM (HEPES)), 1 mM ethylene glycol-bis-(β-aminoethylether-N,N'-tetraacetic acid) (EGTA), 5 mM MgCl2, 150 mM NaCl, bacitracin 0.25 ml/ml, soya bean trypsin inhibitor 0.1 ml/ml, and bovine serum albumin 2 ml/ml pH 6.5 at 25° C.) using a Teflon (trademark) homogenizer, 15 strokes at 500 rpm. The homogenate was further diluted in binding assay buffer to give a final concentration of 0.5 ml original wet weight/1 ml buffer. For the binding assay, 50 μl of buffer (for total binding) or unlabelled CCK-8 sulphated to give a final concentration of 1 μM (for nonspecific binding) or the compounds of Formula I (for determination of inhibition of ^125 I-CCK-8 binding) and 50 μl of 500 pM ^125 I-CCK-8 (i.e. 50 pM final concentration) were added to 400 μl of the membrane suspensions in microfuge tubes. All assays were run in duplicate. The reaction mixtures were incubated at 25° C. for 2 hours and the reaction terminated by rapid filtration (Brandell 24 well cell harvester) over Whatman GF/C filters, washing 3×4 mls with ice-cold 100 Mm NaCl. The radioactivity on the filters was counted with a LKB gamma counter.
The preferred compounds of Formula I are those which produced dose-dependent inhibition of specific ^125 I-CCK-8 binding as defined as the difference between total and non-specific (i.e. in the presence of 1 μM CCK) binding. […]

CCK receptor (brain) = target: T2, CCK receptor (brain) (Cavia porcellus, UniProt H0VZC5); experiment: CCK Receptor Binding (Brain), inhibition of 125I-CCK-8 binding; design: species or system guinea pig (male Hartley); conditions: guinea pig cortex membranes; 50 pM 125I-CCK-8; pH 6.5; 25° C., 2 hours
T2 construct: the cortex was removed and homogenized in 25 mL ice-cold 0.32M sucrose; from tissue; host or cells: guinea pig cerebral cortex P2 membranes (male Hartley)
T2 sequence (H0VZC5 1-426): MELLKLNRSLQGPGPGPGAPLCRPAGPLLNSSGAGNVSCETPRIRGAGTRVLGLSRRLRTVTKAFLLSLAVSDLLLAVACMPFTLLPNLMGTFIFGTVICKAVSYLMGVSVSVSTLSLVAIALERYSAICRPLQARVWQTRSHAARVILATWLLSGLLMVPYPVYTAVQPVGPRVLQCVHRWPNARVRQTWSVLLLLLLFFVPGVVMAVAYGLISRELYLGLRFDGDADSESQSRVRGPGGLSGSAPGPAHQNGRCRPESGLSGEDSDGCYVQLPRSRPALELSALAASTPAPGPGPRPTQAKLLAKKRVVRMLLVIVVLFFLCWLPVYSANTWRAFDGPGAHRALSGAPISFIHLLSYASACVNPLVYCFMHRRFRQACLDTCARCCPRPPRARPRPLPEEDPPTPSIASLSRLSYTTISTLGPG
Procedure: 2. CCK Receptor Binding (Brain)
CCK-8 sulphated was radiolabelled and the binding was performed according to the description for the pancreas method with minor modifications.
Male Hartley guinea pigs (300-500 g) were sacrificed by decapitation and the cortex was removed and homogenized in 25 mL ice-cold 0.32M sucrose. The homogenates were centrifuged at 1000 g for 10 minutes and the resulting supernatant was recentrifuged at 20,000 g for 20 minutes. The P2 pellet was resuspended in binding assay buffer (20 mM HEPES, 5 mMMgCl2, 0.25 ml/ml bacitracin, 1 mM EGTA pH 6.5 at 25° C.), using a Teflon (trademark) homogenizer (5 strokes at 500 rpm) to give a final concentration of […] original wet weight/1.2 ml buffer. For the binding assay, 50 μl of buffer (for total binding) or unlabelled CCK-8 sulphated to give a final concentration of 1 μM (for nonspecific binding) or the compounds of Formula I (for determination of inhibition of ^125 I-CCK-8 binding) and 50 μl of 500 pM ^125 I-CCK-8 (i.e. final concentration of 50 pM) were added to 400 μl of the membrane suspensions in microfuge tubes. All assays were run in duplicate. The reaction mixtures were incubated at 25° C. for 2 hours and then the reaction was terminated by rapid filtration (Brandell 24 well cell harvester) on Whatman GF/C filters with 3×5 ml washes of cold 100 mM NaCl. The radioactivity on the filters was counted with a LKB gamma counter.
The preferred compounds of Formula I are those which produced dose-dependent inhibition of specific ^125 I-CCK-8 binding as defined as the difference between total and non-specific (i.e. in the presence of 1 μM CCK) binding.
Drug displacement studies were performed with at least 10 concentrations of compounds of Formula I and the IC50 values were determined by regression analysis IC50 refers to the concentration of the compound required to inhibit 50% of specific binding of ^125 I-CCK-8.

CC1=NC(NC(=O)Nc2cccc(-c3nn[nH]n3)c2)C(=O)N(C)c2ccccc21 (racemic) [Example 1, N-[3(R,S)-2,3-Dihydro-1,5-dimethyl-2-oxo-1H-1,4-benzodiazepin-3-yl]N'-[3-tetrazol-5-ylphenyl]urea]
IC50 (CCK receptor (pancreas)): > 3000 nM | IC50 (CCK receptor (brain)): 104 nM

CC(C)CN1C(=O)C(NC(=O)Nc2cccc(-c3nn[nH]n3)c2)N=C(C(C)C)c2ccccc21 (racemic) [Example 2, N-[3(R,S)-2,3-Dihydro-1-(2-methylpropyl)-2-oxo-5-(2-propyl) -1H-1,4-benzodiazepin-3-yl]N'-[3-tetrazol-5-ylphenyl]urea]
IC50 (CCK receptor (pancreas)): 600 nM | IC50 (CCK receptor (brain)): 17 nM

CC(C)CN1C(=O)C(NC(=O)Nc2cccc(C(=O)NS(C)(=O)=O)c2)N=C(C(C)(C)C)c2ccccc21 (racemic) [Example 3, N-[3(R,S)-2,3-Dihydro-5-(1,1-dimethylethyl)-1-(2-methylpropyl) -2-oxo-1H-1,4-benzodiazepin-3yl]N'-(3-(methylsulphonylaminocarbonyl)phenyl]urea]
IC50 (CCK receptor (pancreas)): 612 nM | IC50 (CCK receptor (brain)): 32 nM
